Legend:
[1] = test system: microdissected human scalp hair follicles (HF); assay: Hair follicle organ culture model, non-inflammatory condition (ex vivo); type: cell-based
Procedure: A hair follicle organ culture model was used to analyze the direct effects of Compound 1 on HF physiology in a non-inflammatory condition. Human full thickness scalp skin from four healthy donors was cultured ex vivo and treated in four groups with 11 HF's per groups: 1. vehicle (DMSO control), 2. 10 nM Compound 1, 3. 100 nM Compound 1, 4. 1 μM Compound 1. Before treatment began, […] full length microdissected HF's were isolated, pictures and length measurements were taken of the HF's, and the HF's were cultured in WCM. On Days 1, 3, and 5 pictures of HF elongation were taken, the medium was changed, and treatment in groups 1-4 occurred. Days 2 and 4 were rest days. Additionally, on Day 2 three HF's per group were frozen for RNAseq twenty-four hours after the previous day's treatment. On Day 6, pictures were taken of the HF elongation, the culture was closed, and 8 HF's per group were embedded in optimal cutting temperature compound (OCT compound) for further microscopic immunohistological analysis.

[2] = test system: human full thickness scalp skin / hair follicles; assay: Human full thickness scalp skin model, AA-like inflammatory environment, with and without IFNγ (ex vivo); type: cell-based
Procedure: To evaluate the effects of Compound 1 on hair follicle physiology and pathology in an AA-like inflammatory environment, a human full thickness scalp skin model was used. Scalp biopsies from two healthy donors were cultured ex vivo and treated with tofacitinib (400 nM) and Compound 1 (10 nM, 100 nM, 1000 nM) in the presence and absence of IFNγ, a key pathological cytokine involved in AA development. 5 mm skin cubes with hair were acquired from a donor (Donor 1) and a donor (Donor 2). Ten groups were tested with one skin punch per group: 1. Vehicle (DMSO control) 2. Tofacitinib (400 nM), 3. 10 nM Compound 1, 4. 100 nM Compound 1 5. 1 μM Compound 1, 6. Vehicle (DMSO control)+100 IU IFNγ, 7. Tofacitinib (400 nM)+100 IU IFNγ, 8. 10 nM Compound 1+100 IU IFNγ, 9. 100 nM Compound 1+100 IU IFNγ 10. 1 μM Compound 1+100 IU IFNγ. On Day 0, isolation of 10×6mm punches with hair was performed. On Days 1, 3, and 5 the medium was changed and treatment with groups 1-10 occurred. Days 2 and 4 were rest days. On Day 6, the culture was closed and embedded in OCT Compound for further microscopic analysis.

[3] = Safety and tolerability in clinical studies (Phase 1, healthy adult subjects); type: in vivo, human; conditions: approximately 281 adult subjects, various doses; single doses up to 5 mg, repeated doses up to 4 mg QD
Procedure: (§1) Compound 1, or a pharmaceutically acceptable salt, solvate, or hydrate thereof, is an orally administered, selective, synthetic sphingosine 1-phosphate (S1P) receptor 1, 4, 5 modulator. […] Its safety and tolerability have been evaluated in Phase 1 studies with healthy adult subjects at single doses up to 5 mg and repeated doses up to 4 mg once daily (QD).

[4] = Phase 2 dose-ranging study in UC patients and open-label extension; type: in vivo, human; conditions: UC patients
Procedure: as §1

- MICA expression (stress signal) ([1]; 100 nM, anagen and catagen HFs combined and anagen HFs alone (FIG. 9)): significantly reduced
Compound: O=C(O)C[C@H]1CCc2c1[nH]c1ccc(OCc3ccc(C4CCCC4)c(C(F)(F)F)c3)cc21 [Compound 1, (R)-2-(7-(4-cyclopentyl-3-(trifluoromethyl)benzyloxy)-1,2,3,4-tetrahydrocyclopenta[b]indol-3-yl)acetic acid]
- Hair cycle staging / hair cycle score (anagen phase) ([1]; 10 nM and 100 nM, 6-day HF organ culture, vs vehicle (FIG. 7)): tendentially prolonged the anagen phase
- RNAseq: genes involved in hair keratinization ([1]; 10 nm and 100 nm groups, HFs frozen 24 h after treatment): significant up-regulation
- MHC class I (MHC-I) expression in dermal cup, germinative hair matrix, outer root sheath ([1]; anagen and catagen HFs combined and anagen HFs alone (FIGS. 8a, 8b)): no change
- IFNγ-mediated MHC-I up-regulation in the dermal cup of the hair follicle ([2]; +100 IU IFNγ (FIG. 11)): prevented
- Hair cycle staging / hair cycle score (anagen) ([2]; Donor 1, without IFNγ (FIG. 10)): tendentially prolonged anagen
- Increase of CD8-S1P1+ cells showing lymphocytic morphology ([2]; Donor 2 (FIG. 12)): prevented
- Increase of perifollicular CD8+ cells showing lymphocytic morphology ([2]; Donor 2 (FIG. 12)): prevented
- Safety and tolerability [3]: safe and well-tolerated
- Endoscopic and symptomatic improvements versus placebo ([4]; 2 mg QD for 12 weeks): clinically meaningful and statistically significant
- Duration of beneficial effects in open-label extension study ([4]; up to 46 weeks): Sustained beneficial effects
